Experiments:
water-load mice = experiment: Urination frequency of water-load mice; type: in vivo; settings: imipramine 0.01 g/kg*d × 10, gavage
Source text: The experimental animal strains used herein are the SPF KM mice and Wistar rats. Each rat or mouse receives gavage drug administration. Shinyleaf yellowhorn extract is the refined extract from Refining Example IV, in the form of capsules. The control drug is imipramine, which has a strong anti-depression action and a weak atropine-like action, and is often used for treatment of the depression and children enuresis. The experimental method is calculating the urination frequency of mice based on the colorable reaction taking place when the dried potassium iodide and starch are mixed with the urine.

[1] = tested on: excised smooth muscle of bladder of rats; experiment: Relaxation of excised smooth muscle of bladder of rats; type: cell-based; settings: rat bladder smooth muscle strips; 12 experiments
Source text: The experimental animal strain used herein is the SPF Wistar rats. The experiment process is as follows: the rat bladder is surgically excised to prepare the strips of smooth muscle; place the smooth muscle in the thermostat nutrient solution, and then added with Shinyleaf yellowhorn extract (the refined extract from Refining Example IV, in the form of capsules) and the imipramine respectively, under the oxygen supply conditions, to observe the changes in smooth muscle.

[2] = tested on: external bladder sphincter of the rabbit; experiment: Bioelectricity of the extracellular electrode of the external bladder sphincter of the rabbit; type: in vivo; settings: 0.4 mg/kg, gavage
Source text: Experimental method: surgically implant indwelling electrode and record the changes of the external bladder sphincter of the rabbit with a physiological recorder. Administration mode: gavage administration. The adrenomimetic drug Midodrine is a selective α1 adrenoceptor agonist, commonly used for treating of stress incontinence clinically.

dementia rat model = experiment: Avoidance conditioned reflex of the dementia rat model with destructed cholinergic neuron and Meynert basal ganglia; type: in vivo; settings: 0.2 g/kg, gavage
Source text: The animal model of senile dementia is established pursuant to the method disclosed in “Experimental Alzheimer's Disease Animal Model with Destructed Cholinergic Neuron” (Pharmacological Experimental Methodology, Third Edition, […]). The kainic acid is a receptor agonist for the central exciting neurotransmitter glutamate, which has been widely used as a tool drug to establish the neurotoxicity model by the international community. Administration mode: gavage administration. The Piracetam-NEGPF [piracetam, […] acetamide, amide pyrrole ring (ketone)] is a brain metabolism nootropics that can protect and repair cranial nerve cells, promote the transformation of ADP into ATP in the brain and the synthesis of acetylcholine and prevent against the brain function injury caused by the physical and chemical factors, and is used in clinic for the treatment of the brain function disorder due to aging, cerebral vascular accident, traumatic brain injury, and CO poisoning.

[3] = tested on: mouse sleeping model by sodium pentobarbital; experiment: Sleeping hours of the mouse (sodium pentobarbital sleep model); type: in vivo; settings: mice, 0.02 g/kg gavage one hour prior to sodium pentobarbital
Source text: Establish the animal model of sleeping of the mouse by an intraperitoneal injection of sodium pentobarbital. Administer drug by gavage administration one hour prior to the injection, so as to observe the recovery time for the righting reflex of the mouse. Administration mode: gavage administration. The telucidone (meclofenoxate, or centrofenoxine) has an exciting action on central nerve and commonly used for the clinical treatment of traumatic unconscious disturbance and children enuresis.

CN(C)CCCN1c2ccccc2CCc2ccccc21 [Imipramine, imipramine]
Urination frequency (water-load mice; 0.5 h): 0.9 ± 0.7 times/each | Urination frequency (water-load mice; 1.0 h): 2.9 ± 1.3 times/each | Urination frequency (water-load mice; 2.0 h): 2.6 ± 1.5 times/each | Urination frequency (water-load mice; 3.0 h): 1.3 ± 0.8 times/each | Concentration of solution as smooth muscle shows complete relaxation [1]: 0.15 mg/mL

COc1ccc(OC)c(C(O)CNC(=O)CN)c1 (centres unmarked) [Midodrine]
Frequency [2]: 35.4 ± 11.6 times/min | Time duration [2]: 18.7 ± 10.3 min | Wave amplitude [2]: 14.9 ± 6.7 mv

NC(=O)CN1CCCC1=O [Piracetam-NEGPF, piracetam]
Latency (dementia rat model; 72 h post stopping of training): 4.6 ± 0.7 s | Positive rate (dementia rat model; 72 h post stopping of training): 58.2 ± 7.4 % | Latency (dementia rat model; The fifth day): 2.6 ± 0.6 s | Positive rate (dementia rat model; The fifth day): 71.05 ± 8.2 % | Latency (dementia rat model; The first day): 7.1 ± 3.3 s | Positive rate (dementia rat model; The first day): 30.5 ± 12.7% | Latency (dementia rat model; The third day): 4.4 ± 1.0 s | Positive rate (dementia rat model; The third day): 57.6 ± 8.0 %

CN(C)CCOC(=O)COc1ccc(Cl)cc1 [Telucidone, meclofenoxate]
Hour of sleep [3]: 61.2 ± 10.7 min

— patent US20100034903A1, “SHINYLEAF YELLOWHORN EXTRACT, METHODS FOR EXTRACTION AND USES THEREOF” (priority 2006, published 2010)
